Active and inactive are the calls of the source. No cut-off for these calls is given here.
What was measured:
[1] = biological target: Cyclin-dependent kinase 2 (Homo sapiens, UniProt P24941)
Description: Inhibition of CDK2 (unknown origin)

Homo sapiens = species: Homo sapiens; test: Inhibition of Cdk4/Cyclin D (unknown origin) relative to untreated control; settings: concentration not given here
[2] = Chemical stability of the compound; assay type: physicochemical
A-375 [3] = test: Growth inhibition of Rb-proficient human A375 cells after 120 hrs by SRB assay; assay type: functional
MDA-MB-231 [4] = test: Growth inhibition of Rb-proficient human MDA-MB-231 cells after 120 hrs by SRB assay; assay type: functional
Calu-6 [5] = test: Growth inhibition of Rb-proficient human Calu6 cells after 120 hrs by SRB assay; assay type: functional
Skut1B [6] = test: Growth inhibition of Rb-proficient human SK-UT-1B cells after 120 hrs by SRB assay; assay type: functional
SJSA-1 [7] = test: Growth inhibition of Rb-proficient human SJSA1 cells after 120 hrs by SRB assay; assay type: functional
SJSA-1 [8] = test: Growth inhibition of Rb-proficient human SJSA1 cells at 30 uM after 120 hrs by SRB assay; assay type: functional, cell-based
A-375 [9] = test: Growth inhibition of Rb-proficient human A375 cells at 30 uM after 120 hrs by SRB assay; assay type: functional, cell-based
MDA-MB-231 [10] = test: Growth inhibition of Rb-proficient human MDA-MB-231 cells at 30 uM after 120 hrs by SRB assay; assay type: functional, cell-based
Skut1B [11] = test: Growth inhibition of Rb-proficient human SK-UT-1B cells at 30 uM after 120 hrs by SRB assay; assay type: functional, cell-based
Calu-6 [12] = test: Growth inhibition of Rb-proficient human Calu6 cells at 30 uM after 120 hrs by SRB assay; assay type: functional, cell-based

Structure (SMILES) | growth inhibition (GI) (A-375 [3]) | growth inhibition (GI) (MDA-MB-231 [4]) | growth inhibition (GI) (Calu-6 [5]) | growth inhibition (GI) (Skut1B [6]) | growth inhibition (GI) (SJSA-1 [7]) | also measured
CCC(C)Oc1nc(N)nc2[nH]cnc12 (centres undefined) |  |  |  |  |  | IC50 [1]: 49 µM
Nc1nc(OCC2CCCCC2)c2cn[nH]c2n1 |  |  |  |  |  | inhibition (Homo sapiens): 0%
COc1nc(N)nc2nc[nH]c12 [METHYLGUANINE] |  |  |  |  |  | Stability [2]: Unstable
NS(=O)(=O)c1ccc(Nc2nc(OCC3CCCCC3)c3cn[nH]c3n2)cc1 | Dose-dependent effect | Dose-dependent effect | Dose-dependent effect | Dose-dependent effect | Dose-dependent effect | 
NS(=O)(=O)c1ccc(Nc2nc(OCC3CCCCC3)c3cc[nH]c3n2)cc1 | Dose-dependent effect | Dose-dependent effect | Dose-dependent effect | Dose-dependent effect | Dose-dependent effect | 
NS(=O)(=O)c1ccc(Nc2nc(OCC3CCCCC3)c3nc[nH]c3n2)cc1 | Active | Active | Active | Active | Active | 
CC[C@@H](C)Oc1nc(Nc2ccc(S(N)(=O)=O)cc2)nc(N)c1C=O |  |  |  |  |  | IC50 [1]: 0.0008 µM
NS(=O)(=O)c1ccc(Nc2nc(-c3cccc(-c4ccccc4)c3)c3nc[nH]c3n2)cc1 |  |  |  |  |  | growth inhibition (GI) (SJSA-1 [8]): inactive; growth inhibition (GI) (A-375 [9]): inactive; growth inhibition (GI) (MDA-MB-231 [10]): inactive; growth inhibition (GI) (Skut1B [11]): inactive; growth inhibition (GI) (Calu-6 [12]): inactive
